{
  "source": "paper PMC3260554",
  "about": "(Nature Neuroscience, 2010)",
  "key": {"mice": {"test_system": "mice", "assay": "Acetic acid-induced writhing", "assay_type": "in vivo, Swiss Webster mice"}, "FAAH [1]": {"test_system": "FAAH"}, "FAAH [2]": {"target": "T1, FAAH (Mus musculus, UniProt O08914)", "T1 sequence (O08914 1-579)": "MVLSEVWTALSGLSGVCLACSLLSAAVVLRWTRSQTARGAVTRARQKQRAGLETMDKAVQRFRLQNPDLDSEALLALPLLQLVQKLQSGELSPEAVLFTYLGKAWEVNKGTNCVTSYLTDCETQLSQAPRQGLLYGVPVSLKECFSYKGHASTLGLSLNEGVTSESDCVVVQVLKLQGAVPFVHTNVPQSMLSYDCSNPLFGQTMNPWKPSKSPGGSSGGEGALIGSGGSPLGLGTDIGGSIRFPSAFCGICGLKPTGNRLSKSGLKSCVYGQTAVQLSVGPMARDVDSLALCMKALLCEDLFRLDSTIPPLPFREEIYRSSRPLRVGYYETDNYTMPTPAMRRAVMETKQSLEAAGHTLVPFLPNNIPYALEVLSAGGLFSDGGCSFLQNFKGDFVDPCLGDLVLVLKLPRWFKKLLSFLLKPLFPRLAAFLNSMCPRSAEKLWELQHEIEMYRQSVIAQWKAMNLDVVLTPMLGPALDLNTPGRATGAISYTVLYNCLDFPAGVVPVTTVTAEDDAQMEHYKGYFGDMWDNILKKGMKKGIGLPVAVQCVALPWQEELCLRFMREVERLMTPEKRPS", "assay_type": "in vivo, Swiss Webster mice"}, "[3]": {"assay": "Temporal tissue distribution of URB937 in liver, brain and serum", "assay_type": "in vivo, Swiss Webster mice", "conditions": "1 mg-kg^−1, i.p., mice"}, "[4]": {"assay": "Drug distribution coefficient n-octanol / buffer pH 7.4", "assay_type": "physicochemical", "conditions": "n-octanol / aqueous buffer pH 7.4, 25±1°C, mean±s.e.m, n = 3"}, "[5]": {"test_system": "human epithelial TC7 cells", "assay": "Permeability and efflux ratio through polarized TC7 monolayers", "assay_type": "in vitro ADME", "conditions": "mean of 2 independent experiments"}, "Fos protein": {"test_system": "Fos protein", "assay": "Formalin-induced spinal cord Fos protein expression", "assay_type": "in vivo, Sprague-Dawley rats"}, "[6]": {"conditions": "ex vivo 1 h after injection, 1 mg-kg^−1 i.p., Swiss Webster mice, n = 3"}, "[7]": {"conditions": "s.c., mice, 1 h after injection"}},
  "note": "Where two headings read alike, the source gives them in different places.",
  "data": [
    {"smiles": "COc1ccc(C(=O)c2c(C)n(CCN3CCOCC3)c3cc(I)ccc23)cc1", "note": "[AM630]", "values": [
      {"measurement": "Effect of antagonist on the antinociceptive effect of URB937 (writhing)", "setting": "mice; antagonist 1 mg-kg^−1, s.c., with URB937 1 mg-kg^−1 s.c.", "value": "ineffective"}
    ]},
    {"smiles": "NC(=O)c1cccc(-c2cccc(OC(=O)NC3CCCCC3)c2)c1", "note": "[Compound 1a, cyclohexylcarbamic acid 3′-carbamoylbiphenyl-3-yl ester, reference compound]", "values": [
      {"measurement": "Effect on brain FAAH activity", "setting": "FAAH [1]; in vivo, ip", "value": "markedly reduced"}
    ]},
    {"smiles": "NC(=O)c1cccc(-c2cc(OC(=O)NC3CCCCC3)ccc2O)c1", "note": "[Compound 1b]", "values": [
      {"measurement": "Time course of peripheral FAAH inhibition in vivo", "setting": "FAAH [2]; Supplementary Figure 1", "value": "rapidly and lastingly"},
      {"measurement": "FAAH Inhibition in brain", "setting": "FAAH [2]; [6]", "value": "−3.0 ± 8.0", "unit": "%"},
      {"measurement": "FAAH Inhibition in liver", "setting": "FAAH [2]; [6]", "value": "91.7 ± 0.7", "unit": "%"},
      {"measurement": "ED50 for FAAH inhibition in brain", "setting": "FAAH [2]; [7]", "value": 40, "unit": "mg/kg"},
      {"measurement": "ED50 for FAAH inhibition in liver", "setting": "FAAH [2]; [7]", "value": 0.2, "unit": "mg/kg"},
      {"measurement": "Distribution in blood and liver after systemic administration", "setting": "[3]", "value": "distributed rapidly in blood and liver"},
      {"measurement": "Presence in brain tissue after systemic administration", "setting": "[3]", "value": "undetectable"},
      {"measurement": "distribution coefficient, LogDoct,pH7.4", "setting": "[4]", "value": "3.03±0.01"},
      {"measurement": "% recovery A–B", "setting": "[5]", "value": 83, "unit": "%"},
      {"measurement": "% recovery B-A", "setting": "[5]", "value": 95, "unit": "%"},
      {"measurement": "permeability B-A", "setting": "[5]", "value": 37.1, "unit": "×10⁻⁶ cm/s"},
      {"measurement": "Effect on brain FAAH activity", "setting": "FAAH [1]; 25 mg-kg^−1, i.p.", "value": "no effect"}
    ]},
    {"smiles": "COc1ccc2c(c1)c(CC(=O)O)c(C)n2C(=O)c1ccc(Cl)cc1", "note": "[indomethacin]", "values": [
      {"measurement": "Effect on acetic acid-induced writhing relative to URB937", "setting": "mice; 1 mg-kg^−1, s.c., 1 h before test", "value": "comparable in efficacy"}
    ]},
    {"smiles": "Cc1c(C(=O)NN2CCCCC2)nn(-c2ccc(Cl)cc2Cl)c1-c1ccc(Cl)cc1", "note": "[rimonabant]", "values": [
      {"measurement": "Effect on Fos levels when administered without URB937", "setting": "Fos protein; 2 mg-kg^−1, i.p., rats", "value": "did not significantly alter Fos levels"},
      {"measurement": "Effect of antagonist on URB937 suppression of Fos expression", "setting": "Fos protein; rimonabant 2 mg-kg^−1, i.p., with URB937", "value": "prevented"}
    ]}
  ]
}
